Results published in PubChem BioAssay (NCI).
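Step 1: Grow cells in 96-well plates. Step 2: Expose to compound for 48 hours at 5 concentrations. Step 3: Interpolate endpoints linearly; if unreached, use highest concentration. TGI: total growth inhibition.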

How the values were obtained:
Assay in all cases: DTP human tumour cell line panel, 48 h
NCI-H460 lung = tested on: NCI-H460 lung
SK-MEL-28 melanoma = tested on: SK-MEL-28 melanoma
OVCAR-3 ovarian = tested on: OVCAR-3 ovarian
SNB-19 CNS = tested on: SNB-19 CNS
HCC-2998 colon = tested on: HCC-2998 colon
LOX IMVI melanoma = tested on: LOX IMVI melanoma
SN12C renal = tested on: SN12C renal
HT29 colon = tested on: HT29 colon
OVCAR-5 ovarian = tested on: OVCAR-5 ovarian
RPMI-8226 leukemia = tested on: RPMI-8226 leukemia
SK-OV-3 ovarian = tested on: SK-OV-3 ovarian
PC-3 prostate = tested on: PC-3 prostate
UO-31 renal = tested on: UO-31 renal
786-0 renal = tested on: 786-0 renal
SK-MEL-2 melanoma = tested on: SK-MEL-2 melanoma
M14 melanoma = tested on: M14 melanoma
UACC-62 melanoma = tested on: UACC-62 melanoma
SW-620 colon = tested on: SW-620 colon
ACHN renal = tested on: ACHN renal
RXF 393 renal = tested on: RXF 393 renal
NCI-H23 lung = tested on: NCI-H23 lung
SF-539 CNS = tested on: SF-539 CNS
NCI-H226 lung = tested on: NCI-H226 lung
K-562 leukemia = tested on: K-562 leukemia
HCT-15 colon = tested on: HCT-15 colon
MDA-MB-231 breast = tested on: MDA-MB-231 breast
IGROV1 ovarian = tested on: IGROV1 ovarian
SF-268 CNS = tested on: SF-268 CNS
A498 renal = tested on: A498 renal
OVCAR-8 ovarian = tested on: OVCAR-8 ovarian
HOP-62 NSCLC = tested on: HOP-62 NSCLC
SF-295 CNS = tested on: SF-295 CNS
UACC-257 melanoma = tested on: UACC-257 melanoma
A549 NSCLC = tested on: A549 NSCLC
MCF7 breast = tested on: MCF7 breast
TK-10 renal = tested on: TK-10 renal
MALME-3M melanoma = tested on: MALME-3M melanoma
KM12 colon = tested on: KM12 colon
MDA-N = tested on: MDA-N
SK-MEL-5 melanoma = tested on: SK-MEL-5 melanoma
HCT-116 colon = tested on: HCT-116 colon
DU-145 prostate = tested on: DU-145 prostate
T-47D breast = tested on: T-47D breast
HS 578T breast = tested on: HS 578T breast
BT-549 breast = tested on: BT-549 breast
U251 CNS = tested on: U251 CNS
SR leukemia = tested on: SR leukemia
SNB-75 CNS = tested on: SNB-75 CNS
MDA-MB-435 = tested on: MDA-MB-435

O=C1C=CC(=O)c2c(O)c(NCCCN3CCOCC3)c(Cl)c(O)c21
TGI (NCI-H460 lung): > 10 µM | TGI (SK-MEL-28 melanoma): 3.17 µM | TGI (OVCAR-3 ovarian): 2.99 µM | TGI (SNB-19 CNS): 3.25 µM | TGI (HCC-2998 colon): 3.71 µM | TGI (LOX IMVI melanoma): 4.26 µM | TGI (SN12C renal): 3.68 µM | TGI (HT29 colon): 7.34 µM | TGI (OVCAR-5 ovarian): 3.1 µM | TGI (RPMI-8226 leukemia): 1.54 µM | TGI (SK-OV-3 ovarian): > 10 µM | TGI (PC-3 prostate): 9.91 µM | TGI (UO-31 renal): 3.64 µM | TGI (786-0 renal): 5.23 µM | TGI (SK-MEL-2 melanoma): 0.526 µM | TGI (M14 melanoma): 4.18 µM | TGI (UACC-62 melanoma): 4.81 µM | TGI (SW-620 colon): 4.22 µM | TGI (ACHN renal): > 10 µM | TGI (RXF 393 renal): 3.13 µM | TGI (NCI-H23 lung): 3.43 µM | TGI (SF-539 CNS): 3.21 µM | TGI (NCI-H226 lung): > 10 µM | TGI (K-562 leukemia): 8.68 µM | TGI (HCT-15 colon): 3.12 µM | TGI (MDA-MB-231 breast): 7.96 µM | TGI (IGROV1 ovarian): 3.58 µM | TGI (SF-268 CNS): 7.07 µM | TGI (A498 renal): > 10 µM | TGI (OVCAR-8 ovarian): > 10 µM | TGI (HOP-62 NSCLC): 3.86 µM | TGI (SF-295 CNS): 5.49 µM | TGI (UACC-257 melanoma): 4.94 µM | TGI (A549 NSCLC): > 10 µM | TGI (MCF7 breast): 3.31 µM | TGI (TK-10 renal): > 10 µM | TGI (MALME-3M melanoma): 3.56 µM | TGI (KM12 colon): 3.8 µM | TGI (MDA-N): 3.09 µM | TGI (SK-MEL-5 melanoma): 2.4 µM | TGI (HCT-116 colon): 2.93 µM | TGI (DU-145 prostate): 2.95 µM | TGI (T-47D breast): > 10 µM | TGI (HS 578T breast): 3.14 µM | TGI (BT-549 breast): 3.28 µM | TGI (U251 CNS): 5.55 µM | TGI (SR leukemia): 4.64 µM | TGI (SNB-75 CNS): 4.15 µM | TGI (MDA-MB-435): 3.62 µM
